22 compounds from patent publication US20220213052A1, “INHIBITORS OF RNA-BINDING PROTEINS, COMPOSITIONS THEREOF, AND THERAPEUTIC USES THEROF” (The University of North Carolina at Chapel Hill, priority 2019, published 2022) can be followed below.

Assay [1] concerns the target T1, full-length human HuR protein (Homo sapiens, UniProt Q15717).
T1 construct: full-length human HuR protein was produced by the KU COBRE-PSF Protein Purification Group; made in house
The experiment in a line: FP assay of HuR-Msi1 ARE binding inhibition. The settings on record: HuR-Msi1 ARE interaction; read-out: HuR Ki via FP assay. From the text:
A fluorescence polarization (FP)-based binding assay was utilized to assess the inhibition of HuR protein interaction with the ARE site of Msi1 mRNA (“HuR-Msi1^ARE”) by compounds of interest. Briefly, full-length human HuR protein was produced by the KU COBRE-PSF Protein Purification Group and Bcl2, Msi1 and XIAP mRNA sequences (16 nt) were designed based on literature precedent^23,24,31,32. Fluorescein labeled RNAs were purchased from Dharmacon with the following sequences: Msi1 RNA: 5′-[…]-3′-fluorescein; Bcl-2 RNA: 5′-[…]-3′-fluorescein; XIAP RNA: 5′-[…] UGUC-3′-fluorescein, and a 16-nt degenerative RNA with 3′-fluorescein label was used as a negative control.
(§1) With the FP assay of HuR-Msi1ARE binding, the inhibition of the HuR-Msi1ARE interaction by various compounds of the present technology was assessed. Similar FP assays for Musashi 2 (Msi2) and for RNA-binding protein Lin-28 homolog B (LIN28B) were also performed on various compounds of the present technology. The results of such assays for HuR are provided in Table 1 alongside the compound structures as well as ID numbers for ease of reference; the results of such assays for Msi1, Msi2, and LIN28B are provided in Table 2.

The test system of assay [2] is triple-negative breast cancer cell line MDA-MB-231. As to the kind of experiment: Cytotoxicity assay (WST-8), MDA-MB-231. It counts as cell-based. The settings on record: Homo sapiens, 96 h incubation. The method, then: The cytotoxicity of various compounds of the present technology in several cancer cell lines (pancreatic cancer cell line MIAPaCa-2, triple-negative breast cancer cell line MDA-MB-231, and colon cancer cell lines HCT116, HCT116 β/W, and RKO) was assessed by a cytotoxicity assay. Cells were seeded in 96-well culture plates (3,000-5,000 cells/well) and treated with titrated compounds in triplicate. After 96 h incubation, cell growth medium was removed and proliferation reagent WST-8 (Sigma) was added to each well and incubated at 37° C. for 1-3 h. Absorbance was then measured with a plate reader at 450 nm with correction at 650 nm. The results were expressed as the percentage of absorbance of treated wells versus that of vehicle control. IC50, the drug concentration causing 50% growth inhibition, was calculated via sigmoid curve fitting using GraphPad Prism 5.0. The results for those compounds tested against MIAPaCa-2 and MDA-MB-231 are provided in Table 1; the results for those compounds tested against colon cancer cell lines HCT116, HCT116 β/W, and RKO are provided in Table 3.
For orientation: Formazan colour is commonly taken as a measure of viable cells.

In assay [3] the target is Msi1 (Homo sapiens, UniProt O43347). The experiment in a line: Msi1 FP assay. The assay is classed as binding. The method, then: as §1
Assay [4] has as its target Musashi 2 (Msi2) (Homo sapiens, UniProt Q96DH6). The experiment in a line: Msi2 FP assay. It counts as binding. The method, then: as §1
For assay [5], the target named is T2, RNA-binding protein Lin-28 homolog B (LIN28B) (Homo sapiens, UniProt Q6ZN17).
T2 sequence (Q6ZN17 1-250): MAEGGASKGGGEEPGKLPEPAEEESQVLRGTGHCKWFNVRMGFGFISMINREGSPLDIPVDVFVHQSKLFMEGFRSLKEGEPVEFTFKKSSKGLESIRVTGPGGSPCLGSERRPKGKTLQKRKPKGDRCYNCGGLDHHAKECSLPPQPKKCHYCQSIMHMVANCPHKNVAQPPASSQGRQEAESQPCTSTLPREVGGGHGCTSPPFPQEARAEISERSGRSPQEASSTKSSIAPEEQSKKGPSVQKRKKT
As to the kind of experiment: LIN28B FP assay. The method, then: as §1

Where [6] appears, read: cell without (RRM1) mark, read-out: Msi2 (Ki).
Setting [7] is: cell marked (RRM1), read-out: Msi2 (Ki) (RRM1).

Where a name gives a salt, the structure may show the parent alone. Read-outs that look alike come from different tables or passages of the source. Bounds are passed on as bounds.

Sequence of Musashi 2 (Msi2) (Q96DH6 whole entry, species assumed): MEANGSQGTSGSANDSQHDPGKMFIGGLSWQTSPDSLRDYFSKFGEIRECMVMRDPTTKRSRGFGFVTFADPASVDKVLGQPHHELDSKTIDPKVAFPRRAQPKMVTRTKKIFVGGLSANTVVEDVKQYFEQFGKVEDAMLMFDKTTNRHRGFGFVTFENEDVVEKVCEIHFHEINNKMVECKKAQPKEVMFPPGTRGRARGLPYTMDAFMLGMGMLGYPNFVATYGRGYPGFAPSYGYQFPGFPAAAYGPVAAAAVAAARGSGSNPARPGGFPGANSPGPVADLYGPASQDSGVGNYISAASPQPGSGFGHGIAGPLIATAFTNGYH
T1 sequence (Q15717 whole entry): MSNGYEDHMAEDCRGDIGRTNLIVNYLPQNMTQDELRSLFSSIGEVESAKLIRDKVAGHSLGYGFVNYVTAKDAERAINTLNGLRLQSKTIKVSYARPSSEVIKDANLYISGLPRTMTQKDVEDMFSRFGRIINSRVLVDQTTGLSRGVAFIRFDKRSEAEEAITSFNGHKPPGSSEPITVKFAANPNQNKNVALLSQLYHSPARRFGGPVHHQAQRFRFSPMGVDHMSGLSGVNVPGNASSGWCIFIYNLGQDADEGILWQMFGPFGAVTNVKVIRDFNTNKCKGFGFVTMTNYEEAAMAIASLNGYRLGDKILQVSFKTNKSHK
Sequence of Msi1 (O43347 whole entry, species assumed): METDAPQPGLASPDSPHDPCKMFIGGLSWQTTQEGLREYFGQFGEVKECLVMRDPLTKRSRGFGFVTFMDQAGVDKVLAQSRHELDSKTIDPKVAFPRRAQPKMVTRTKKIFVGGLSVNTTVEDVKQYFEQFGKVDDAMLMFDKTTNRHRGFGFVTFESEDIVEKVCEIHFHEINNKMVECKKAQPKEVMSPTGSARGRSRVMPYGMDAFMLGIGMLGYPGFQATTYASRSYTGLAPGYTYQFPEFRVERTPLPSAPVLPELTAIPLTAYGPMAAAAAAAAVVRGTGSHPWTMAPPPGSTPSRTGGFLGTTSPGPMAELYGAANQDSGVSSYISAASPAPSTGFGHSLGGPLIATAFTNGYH

For orientation: Ki means a dissociation constant, usually derived from enzyme kinetics or from competition with a known ligand. For orientation: IC50 means the concentration that inhibits the measured activity by half. Consider `CC(C)(C)c1ccc(C(=O)Nc2ccc3sc(/C=C/C(N)=O)cc3c2)cc1` [KH-19C, (E)-N-(2-(3-amino-3-oxoprop-1-en-1-yl)benzo[b]thiophen-5-yl)-4-(tert-butyl)benzamide], for which the inhibitory constant (Ki) in assay [1] was 0.6 µM; in assay [3] it was more than 20 µM; in assay [4] (setting [6]) it was 4.83 µM; in assay [5], more than 20 µM. The compound also displayed an IC50 in assay [2] of 8.68 µM.

Take `CC(C)(C)c1ccc(C(=O)Nc2ccc3sc(/C=C/C(=O)NN)cc3c2)cc1` [KH-19E, (E)-4-(tert-butyl)-N-(2-(3-hydrazinyl-3-oxoprop-1-en-1-yl)benzo[b]thiophen-5-yl)benzamide]: the Ki in assay [1] is 0.19 µM; in assay [3], more than 20 µM; in assay [4] (setting [6]), more than 20 µM; in assay [5], more than 20 µM. The same compound came in with a half-maximal inhibitory concentration (IC50) in assay [2] of 28.4 µM.

For `CC(C)(C)c1ccc(C(=O)Nc2ccc3sc(CCC(=O)NO)cc3c2)cc1` [KH-22, 4-(tert-Butyl)-N-(2-(3-(hydroxyamino)-3-oxopropyl)benzo[b]thiophen-5-yl)benzamide], the Ki was 0.83 µM in assay [1], more than 20 µM in assay [3], more than 20 µM in assay [4] (setting [6]) and more than 20 µM in assay [5]. Besides, the IC50 in assay [2] came out at 3.48 µM.

Turning to `O=C(O)/C=C/c1cc2cc(NC(=O)c3ccc(F)cc3)ccc2s1` [KH-23A, (E)-3-(5-(4-Fluorobenzamido)benzo[b]thiophen-2-yl)acrylic acid], the Ki in assay [1], in assay [3], in assay [4] (setting [6]) and in assay [5] was more than 20 µM in each case.

`O=C(O)CCc1cc2cc(NC(=O)c3ccc(F)cc3)ccc2s1` [KH-28A, 3-(5-(4-Fluorobenzamido)benzo[b]thiophen-2-yl)propanoic acid]: the Ki in assay [1], in assay [3], in assay [4] (setting [6]) and in assay [5] was more than 20 µM in each case.

With `CC(C)(C)c1ccc(C(=O)Nc2ccc3[nH]c(C(=O)NN)cc3c2)cc1` [KH-39E, 4-(tert-butyl)-N-(2-(hydrazinecarbonyl)-1H-indol-5-yl)benzamide], the Ki in assay [1] was 1.67 µM; in assay [5] it was more than 20 µM. In assay [2], the IC50 came out at 13.5 µM.

Take `CC(C)(C)c1ccc(C(=O)Nc2ccc3sc(C(=O)NO)cc3c2)cc1` [KH-43, 5-(4-(tert-butyl)benzamido)-N-hydroxybenzo[b]thiophene-2-carboxamide]: the figures for the Ki in assay [1], in assay [4] (setting [7]) and in assay [5] were 0.44 µM, 2.9 µM and 2.7 µM, respectively. Further, in assay [2], the IC50 was 3.71 µM.

As for `CC(C)(C)c1ccc(C(=O)Nc2ccc3sc(C(=O)O)cc3c2)cc1` [KH-43A, 5-(4-(tert-butyl)benzamido)benzo[b]thiophene-2-carboxylic acid], the Ki in assay [1] is 5.08 µM; in assay [4] (setting [7]), 5.25 µM; in assay [5], more than 20 µM. In addition, the IC50 in assay [2] is 90.5 µM.

For `O=C(/C=C/c1cc2cc(NC(=O)C3CCCCC3)ccc2s1)NO` [KH-46, (E)-N-(2-(3-(hydroxyamino)-3-oxoprop-1-en-1-yl)benzo[b]thiophen-5-yl) cyclohexanecarboxamide], the Ki was 1.29 µM in assay [1], more than 20 µM in assay [4] (setting [6]) and 5.84 µM in assay [5]. Besides, the IC50 in assay [2] was 3.5 µM.

Turning to `O=C(O)/C=C/c1cc2cc(NC(=O)C3CCCCC3)ccc2s1` [KH-46A, (E)-3-(5-(cyclohexanecarboxamido)benzo[b]thiophen-2-yl)acrylic acid], the inhibitory constant (Ki) in assay [1] was 4.27 µM; in assay [4] (setting [6]) it was more than 20 µM; in assay [5], more than 20 µM. This compound returned an IC50 in assay [2] of more than 100 µM.

`O=C(/C=C/c1cc2cc(NC(=O)c3ccccn3)ccc2s1)NO` [KH-47, (E)-N-(2-(3-(hydroxyamino)-3-oxoprop-1-en-1-yl)benzo[b]thiophen-5-yl) picolinamide hydrochloride]: the Ki was 4.44 µM in assay [1], more than 20 µM in assay [4] (setting [6]) and more than 20 µM in assay [5]. Moreover, in assay [2], the IC50 came to 3.11 µM.

Regarding `O=C(O)/C=C/c1cc2cc(NC(=O)c3ccccn3)ccc2s1` [KH-47A, (E)-3-(5-(picolinamido)benzo[b]thiophen-2-yl)acrylic acid hydrochloride], the Ki in assay [1] is 1.81 µM; in assay [4] (setting [7]), 6.8 µM; in assay [5], more than 20 µM. Besides, in assay [2], half-maximal inhibition (IC50) was put at 18.2 µM.

Regarding `CC(C)(C)c1ccc(C(=O)Nc2ccc3[nH]c(/C=C/C(=O)NO)cc3c2)cc1` [KH-48, (E)-4-(tert-butyl)-N-(2-(3-(hydroxyamino)-3-oxoprop-1-en-1-yl)-1H-indol-5-yl)benzamide], the figures for the Ki in assay [1], in assay [4] (setting [7]) and in assay [5] were 0.34 µM, 3.91 µM and 8.79 µM, respectively. Also, half-maximal inhibition in assay [2] (IC50) was put at 2.24 µM.

On to `CC(C)(C)c1ccc(C(=O)Nc2ccc3[nH]c(/C=C/C(=O)O)cc3c2)cc1` [KH-48A, (E)-3-(5-(4-(tert-butyl)benzamido)-1H-indol-2-yl)acrylic acid], for which the Ki is 3.35 µM in assay [1], 4.8 µM in assay [4] (setting [7]) and more than 20 µM in assay [5]. Further, the IC50 in assay [2] is more than 100 µM.

`CN(C)c1ccc(C(=O)Nc2ccc3[nH]c(/C=C/C(=O)NO)cc3c2)cc1` [KH-52, (E)-4-(dimethylamino)-N-(2-(3-(hydroxyamino)-3-oxoprop-1-en-1-yl)-1H-indol-5-yl)benzamide]: the Ki in assay [1] is 0.69 µM; in assay [4] (setting [6]) it was more than 20 µM; in assay [5] it was more than 20 µM. For the same compound, the IC50 in assay [2] came out at 8.91 µM.

With `CN(C)c1ccc(C(=O)Nc2ccc3[nH]c(/C=C/C(=O)O)cc3c2)cc1` [KH-52A, (E)-3-(5-(4-(dimethylamino)benzamido)-1H-indol-2-yl)acrylic acid], the Ki is 7.76 µM in assay [1], 27.1 µM in assay [4] (setting [7]) and more than 20 µM in assay [5]. This compound also showed an IC50 in assay [2] of more than 100 µM.

Consider `O=C(Nc1ccc2[nH]c(C(=O)O)cc2c1)c1ccccn1` [KH-56A, 5-(picolinamido)-1H-indole-2-carboxylic acid hydrochloride], for which the Ki in assay [1], in assay [4] (setting [6]) and in assay [5] was more than 20 µM each time. For the same compound, the IC50 in assay [2] is more than 100 µM.

In the case of `CN(C)c1ccc(C(=O)Nc2ccc3[nH]c(C(=O)NO)cc3c2)cc1` [KH-57, 5-(4-(dimethylamino)benzamido)-N-hydroxy-1H-indole-2-carboxamide], the values for the Ki in assay [1], in assay [4] (setting [6]) and in assay [5] were 3.31 µM, more than 20 µM and more than 20 µM, respectively. For the same compound, in assay [2], half-maximal inhibition (IC50) required 11.3 µM.

As for `CN(C)c1ccc(C(=O)Nc2ccc3[nH]c(C(=O)O)cc3c2)cc1` [KH-57A, 5-(4-(dimethylamino)benzamido)-1H-indole-2-carboxylic acid], the Ki in assay [1] is 0.78 µM; in assay [4] (setting [7]), 2.1 µM; in assay [5], more than 20 µM. In assay [2], this compound registered an IC50 of 100 µM.

For `CN(C)c1ccc(C(=O)Nc2ccc3sc(C(=O)O)cc3c2)cc1` [KH-58A, 5-(4-(Dimethylamino)benzamido)benzo[b]thiophene-2-carboxylic acid], the Ki is 2.37 µM in assay [1], 6.6 µM in assay [4] (setting [7]) and more than 20 µM in assay [5]. Besides, the IC50 in assay [2] was more than 100 µM.

For `O=C(Nc1ccc2sc(C(=O)NO)cc2c1)c1ccccn1` [KH-60, N-(2-(hydroxycarbamoyl)benzo[b]thiophen-5-yl)picolinamide], the inhibitory constant (Ki) in assay [1] was 3.23 µM; in assay [4] (setting [6]), more than 20 µM; in assay [5] it was more than 20 µM. In addition, in assay [2], the IC50 is 4.43 µM.

Regarding `O=C(Nc1ccc2sc(C(=O)O)cc2c1)c1ccccn1` [KH-60A, 5-(Picolinamido)benzo[b]thiophene-2-carboxylic acid hydrochloride], the results for the Ki in assay [1], in assay [4] (setting [7]) and in assay [5] were 1.14 µM, 4.6 µM and more than 20 µM, respectively. The compound further yielded an IC50 in assay [2] of more than 100 µM.
